What all share (assay type): physicochemical
Data set [1] in a line: Specific surface area (BET) of the crystalline forms. The note with it: powder of the crystalline form; paired with the apparent density of the same line. From the text: (§1) The dissolution kinetics promote the xenobiotic bioavailability of this type of active principle. It is also known that the dissolution kinetics are accelerated by increasing the specific surface area. […] Table I below gives the respective values of the apparent density and the specific surface area (BET surface area) for the various crystalline forms.

Data set [2] is described as follows: Apparent density of the crystalline forms. As to conditions: for Apparent density: powder of the crystalline form, paired with the specific surface area of the same line.
Excerpt: as §1

Data set [3] can be described thus: Comparative grinding studies (jet micronisation): specific surface area (BET) of batches. As to conditions: for BET: after grinding, feed pressure, grinding pressure and feed flow differ per batch (batches 1-11, see line of table). On the procedure: In addition, comparative grinding studies, in particular by jet micronisation, were performed so as to obtain powders of the stable and metastable forms having the same specific surface area.
Table II below presents a comparison of the specific surface areas of different batches of the compound of the formula I in which n represents 1 and R in position 7 represents methoxy, obtained by carrying out different grinding conditions.

“And” between values parts separate entries of the source, which are not always exact repeats. Identical values can stand only once.

Consider `COc1ccc2c(c1)C(/C=C/C(C)=C/C(=O)O)=CC(C)(C)CO2` [metastable, 2E,4E-(methoxy-7-dimethyl-3-dihydro-2,3-benzoxepin-1-yl-5)-5-methyl-3-pentadien-2,4-oic Acid], for which, in data set [1], the “Specific surface area or BET” value was 3.1 m^2/g and 2.8 m^2/g. Further, in data set [2] (for the same specific surface area value), the “Apparent density of metastable form compared with thermodynamically stable form” value is “greater apparent density”. Moreover, the Apparent density in data set [2] is reported as 0.30. Moreover, the BET in data set [3] (feed 2.0 bar, grinding 1.0 bar, 4.5 kg/h) is reported as 6.2 m^2/g; in data set [3] (feed 2.2 bar, grinding 1.2 bar, 5.0 kg/h) it was 7.2 m^2/g; in data set [3] (feed 2.5 bar, grinding 1.5 bar, 1.5 kg/h), 10.2 m^2/g; in data set [3] (feed 2.5 bar, grinding 1.5 bar, 2.4 kg/h), 9.1 m^2/g; in data set [3] (feed 2.5 bar, grinding 1.5 bar, 6.5 kg/h) it was 9.2 m^2/g. The “Specific surface area (BET) after grinding, metastable versus stable form” value in data set [3] (jet micronisation, similar operating conditions (feed pressure and grinding pressure)) is listed as “greater specific surface area (BET)”. In data set [3] (metastable versus stable form), the “Suitability for grinding or micronisation” value is listed as “more suitable for grinding or micronisation”.
For the molecule `COc1ccc2c(c1)C(/C=C/C(C)=C/C(=O)O)=CC(C)(C)CO2` [stable, 2E,4E-(methoxy-7-dimethyl-3,3-dihydro-2,3-benzoxepin-1-yl-5)-5-methyl-3-pentadien-2,4-oic acid], the Apparent density in data set [2] was 0.18 and 0.29 and 0.16.

Source of the values: patent publication US7470719B2, “Metastable benzoxepne derivatives which can be used in the treatment of dyslipidaemia a therosclerosis and diabetes, pharmaceutical compositions comprising them and processes for the preparation thereof” (Merck Patent GmbH, priority 2002, dated 2008).
